Among the data in patent US8901124B2, “Pyridazine amide compounds useful as SYK inhibitors” (priority 2012, dated 2014) are IC50 values, retold here.

The assay concerns HUMAN WHOLE BLOOD. As to the kind of experiment: IC50 in human whole blood. Format: cell-based.
As a reminder, the IC50 is the concentration that inhibits the measured activity by half. The low end stands for greater potency in that assay, the high end for weaker potency in that assay. For the compound `Cn1cnc2c(Nc3cc(N[C@@H]4CCCC[C@@H]4N)nnc3C(N)=O)cccc21` [Compound I-22, 6-((1R,2S)-2-aminocyclohexylamino)-4-(1-methyl-1H-benzo[d]imidazol-4-ylamino)pyridazine-3-carboxamide], the IC50 amounted to 21500 nM.
As to `NC(=O)c1nnc(N[C@@H]2CCCC[C@@H]2N)cc1Nc1cccc(-n2nccn2)n1` [Compound I-23, 4-(6-(2H-1,2,3-triazol-2-yl)pyridin-2-ylamino)-6-((1R,2S)-2-aminocyclohexylamino)pyridazine-3-carboxamide], the IC50 was determined as 810 nM.
In the case of `Cc1ccc(Nc2cc(N[C@@H]3CCOC[C@@H]3N)nnc2C(N)=O)nc1C(C)C` [Compound I-27, 6-((3R,4R)-3-Amino-tetrahydro-pyran-4-ylamino)-4-(6-isopropyl-5-methyl-pyridin-2-ylamino)-pyridazine-3-carboxylic acid amide] it was 313 nM.
The value for `CC(C)(C)c1cccc(Nc2cc(N[C@@H]3CCOC[C@@H]3N)nnc2C(N)=O)n1` [Compound I-29, 6-((3R,4R)-3-aminotetrahydro-2H-pyran-4-ylamino)-4-(6-tert-butylpyridin-2-ylamino)pyridazine-3-carboxamide] was 1800 nM; that for `CCOc1cccc(Nc2cc(N[C@@H]3CCCC[C@@H]3N)nnc2C(N)=O)n1` [Compound I-30, 6-((1R,2S)-2-aminocyclohexylamino)-4-(6-ethoxypyridin-2-ylamino)pyridazine-3-carboxamide] was 487 nM.
In the case of `NC(=O)c1nnc(N[C@@H]2CCCC[C@@H]2N)cc1Nc1cccc(-n2cccn2)n1` [Compound I-33, 4-(6-(1H-pyrazol-1-yl)pyridin-2-ylamino)-6-((1R,2S)-2-aminocyclohexylamino)pyridazine-3-carboxamide] it was 1420 nM; in that of `Cc1cc(Nc2cc(N[C@@H]3CCCC[C@@H]3N)nnc2C(N)=O)nc(C(C)C)c1` [Compound I-35, 6-((1R,2S)-2-aminocyclohexylamino)-4-(6-isopropyl-4-methylpyridin-2-ylamino)pyridazine-3-carboxamide], 923 nM.
Regarding `CC(C)(C#N)c1cccc(Nc2cc(N[C@@H]3CCCC[C@@H]3N)nnc2C(N)=O)n1` [Compound I-36, 6-((1R,2S)-2-aminocyclohexylamino)-4-(6-(2-cyanopropan-2-yl)pyridin-2-ylamino)pyridazine-3-carboxamide], the IC50 was 2090 nM.
In the case of `CC(C)(O)c1cccc(Nc2cc(N[C@@H]3CCCC[C@@H]3N)nnc2C(N)=O)n1` [Compound I-37, 6-((1R,2S)-2-aminocyclohexylamino)-4-(6-(2-hydroxypropan-2-yl)pyridin-2-ylamino)pyridazine-3-carboxamide] it was 2340 nM.
The value for `CCCc1cc(C)cc(Nc2cc(N[C@@H]3CCCC[C@@H]3N)nnc2C(N)=O)n1` [Compound I-38, 6-((1R,2S)-2-aminocyclohexylamino)-4-(4-methyl-6-propylpyridin-2-ylamino)pyridazine-3-carboxamide] was 642 nM; that for `CCCc1cc(C)cc(Nc2cc(N[C@@H]3CCOC[C@@H]3N)nnc2C(N)=O)n1` [Compound I-39, 6-((3R,4R)-3-aminotetrahydro-2H-pyran-4-ylamino)-4-(4-methyl-6-propylpyridin-2-ylamino)pyridazine-3-carboxamide] was 818 nM.
The value for `CCCc1nc(Nc2cc(N[C@@H]3CCOC[C@@H]3N)nnc2C(N)=O)ccc1OC` [Compound I-40, 6-((3R,4R)-3-aminotetrahydro-2H-pyran-4-ylamino)-4-(5-methoxy-6-propylpyridin-2-ylamino)pyridazine-3-carboxamide] was 332 nM; that for `COc1nc(Nc2cc(N[C@@H]3CCOC[C@@H]3N)nnc2C(N)=O)ccc1C(C)C` [Compound I-42, 6-((3R,4R)-3-aminotetrahydro-2H-pyran-4-ylamino)-4-(5-isopropyl-6-methoxypyridin-2-ylamino)pyridazine-3-carboxamide] was 909 nM.
`CC(C)Oc1cccc(Nc2cc(N[C@@H]3CCOC[C@@H]3N)nnc2C(N)=O)n1` [Compound I-43, 6-((3R,4R)-3-aminotetrahydro-2H-pyran-4-ylamino)-4-(6-isopropoxypyridin-2-ylamino)pyridazine-3-carboxamide] showed an IC50 of 372 nM.
